# Data: patent publication US20240182436A1, “SUBSTITUTED SULFONAMIDE-CHROMAN COMPOUNDS, AND PHARMACEUTICAL COMPOSITIONS, AND METHODS OF USE THEREOF” (priority 2021, published 2024)
# Test system: Harmaline-induced tremor
# Test: Harmaline-induced Tremor Model
# Type: in vivo
# Details: Mus musculus, ip, adult male CD1 mice; test article 30 mg/kg i.p.; harmaline 30 mg/kg i.p.; read-out: Tremor Suppression Activity (magnitude of tremor suppression in percent compared to vehicle)
# From the text: Harmaline-induced Tremor: Harmaline-induced tremor is widely recognized as an animal model of Essential Tremor (ET). Following acute administration, harmaline produces an 8-16 Hz tremor in rodents, cats, and monkeys that, like ET, is postural and kinetic, involving appendicular and axial musculature (Handforth, A. (2012). Harmaline tremor: underlying mechanisms in a potential animal model of essential tremor. Tremor and Other Hyperkinetic Movements (NY), 2, 02-92-769-1; Handforth, A. (2016). Linking Essential Tremor to the Cerebellum-Animal Model Evidence. Cerebellum, 15(3), 285-298; LeDoux, M. (2005). Harmaline tremor. In Movement Disorders. Elsevier Inc.; Louis, E. D. (2014). Re-thinking the biology of essential tremor: From models to morphology. Parkinsonism and Related Disorders, 20 (SUPPL.1), S88-S93). […] Clinical agents that suppress ET in patients are generally effective in the harmaline-induced tremor model (Handforth 2016). Following acute dosing of harmaline in mice, the tremor frequency (10-20 Hz) is typically recorded using an automated force plate-based system.
# Procedure: Tremor activity was measured using a custom-made testing apparatus containing a piezoelectric sensing platform which was connected to an amplifier (A-M Systems model 1700). Adult male CD1 mice were brought to the experiment room for acclimatization 1 h prior to testing. Mice were first placed inside the testing apparatus for 10 min baseline habituation. After the initial habituation, mice were treated with vehicle (10 ml/kg) or test article (30 mg/kg, i.p.) and placed back in the apparatus for an additional 20 min baseline recording. Subsequently, animals were injected with harmaline (30 mg/kg, i.p.) and tremor activity was measured for 20 min. The electric signal of tremor activity was amplified at a sampling rate of 512 Hz with a multichannel amplifier and then acquired, quantized, and digitized by a data acquisition unit (CED Micro 1401). The software Spike2 (v 7.07, Cambridge Electronic Design, Cambridge, UK) was used to analyze the tremor signal by performing Fourier transformation of the data into frequency spectra. Changes in absolute power were expressed relative to each animal's 20-min baseline for the frequencies of 10-20 Hz. Comparisons between treatment and respective vehicle groups were assessed with two-tailed, Student's t-test. The level of statistical significance was defined as p<0.05 (see, e.g., Table 2.1) The magnitude of tremor suppression in percent compared to vehicle is shown in Table 2.2.
# A tremor suppression score was defined as the magnitude of tremor suppression in percent compared to vehicle: ≤24% (D), 25-55% (C), 56-70% (B) and 71-100% (A). Not tested (---).
row,Structure (SMILES),inhibition in vivo at 30 mg/kg [%]
1,"C[C@H]1COc2ccc(F)cc2[C@H]1CS(N)(=O)=O (relative stereo) [Compound 53, ((3R*,4S*)-6-fluoro-3-methylchroman-4-yl)methanesulfonamide]",25 to 55
2,"C[C@@H]1COc2cc(F)ccc2[C@H]1NS(N)(=O)=O (relative stereo) [Compound 76, (3(S*),4(S*))-7-fluoro-3-methyl-4-(sulfamoylamino)-3,4-dihydro-2(H)-chromene]",56 to 70
3,"NS(=O)(=O)CC1CC2(CC2)Oc2cc(F)ccc21 (single isomer, unassigned) [Compound 1, (S*)-(7-fluorospiro[chromane-2,1′-cyclopropan]-4-yl)methanesulfonamide]",56 to 70
4,"NS(=O)(=O)CC1CCOc2cc(F)cc(F)c21 (single isomer, unassigned) [Compound 17, (S*)-(5,7-difluorochroman-4-yl)methanesulfonamide]",56 to 70
5,"NS(=O)(=O)C1(C2CCOc3cc(F)ccc32)CC1 (single isomer, unassigned) [Compound 27, (S*)-1-(7-fluorochroman-4-yl)cyclopropane-1-sulfonamide]",≤ 24
6,"NS(=O)(=O)CC1CCOc2cc(F)c(F)cc21 (single isomer, unassigned) [Compound 29, (S*)-(6,7-difluorochroman-4-yl)methanesulfonamide]",56 to 70
7,"NS(=O)(=O)CC1CCOc2cc(Cl)ccc21 (single isomer, unassigned) [Compound 31, (S*)-(7-chlorochroman-4-yl)methanesulfonamide]",71 to 100
8,"NS(=O)(=O)CC1CCOc2cc(C(F)(F)F)ccc21 (single isomer, unassigned) [Compound 37, (S*)-(7-(trifluoromethyl)chroman-4-yl)methanesulfonamide]",56 to 70
9,"CC1(C)COc2cc(F)ccc2C1CS(N)(=O)=O (single isomer, unassigned) [Compound 43, (S*)-(7-fluoro-3,3-dimethylchroman-4-yl)methanesulfonamide]",≤ 24
10,"CC1(C)CC(CS(N)(=O)=O)c2ccc(F)cc2O1 (single isomer, unassigned) [Compound 45, (R*)-(7-fluoro-2,2-dimethylchroman-4-yl)methanesulfonamide]",71 to 100
11,"Cc1ccc2c(c1)OCCC2CS(N)(=O)=O (single isomer, unassigned) [Compound 57, (S*)-(7-methylchroman-4-yl)methanesulfonamide]",≤ 24
12,"N#Cc1ccc2c(c1)OCCC2CS(N)(=O)=O (single isomer, unassigned) [Compound 59, (S*)-(7-cyanochroman-4-yl)methanesulfonamide]",≤ 24
13,"C[C@H]1COc2cc(F)c(F)cc2[C@H]1CS(N)(=O)=O (stereo in doubt) [Compound 7, ((3R*,4S*)-6,7-difluoro-3-methylchroman-4-yl)methanesulfonamide]",25 to 55
14,"C[C@@H]1COc2cc(F)c(F)cc2[C@@H]1CS(N)(=O)=O (stereo in doubt) [Compound 8, ((3S*,4R*)-6,7-difluoro-3-methylchroman-4-yl)methanesulfonamide]",25 to 55

# Same assay, conditions: adult male CD1 mice; test article 30 mg/kg i.p.; harmaline 30 mg/kg i.p.
row,Structure (SMILES),Tremor Suppression Activity (magnitude of tremor suppression in percent compared to vehicle)
1,"NS(=O)(=O)CC1CC2(CC2)Oc2cc(F)ccc21 (single isomer, unassigned) [Compound 2, (R*)-(7-fluorospiro[chromane-2,1′-cyclopropan]-4-yl)methanesulfonamide]",A (71-100% (A))
2,"NS(=O)(=O)CC1CC2(CCC2)Oc2cc(F)ccc21 (single isomer, unassigned) [Compound 3, (S*)-(7-fluorospiro[chromane-2,1′-cyclobutan]-4-yl)methane-sulfonamide]",C (25-55% (C))
3,"NS(=O)(=O)CC1CC2(CCC2)Oc2cc(F)ccc21 (single isomer, unassigned) [Compound 4, (R*)-(7-fluorospiro[chromane-2,1′-cyclobutan]-4-yl)methane-sulfonamide]",B (56-70% (B))
4,"CC1(C)CC(CS(N)(=O)=O)c2cc(F)c(F)cc2O1 (single isomer, unassigned) [Compound 5, (S*)-(6,7-difluoro-2,2-dimethylchroman-4-yl)methanesulfonamide]",C (25-55% (C))
5,"CC1(C)CC(CS(N)(=O)=O)c2cc(F)c(F)cc2O1 (single isomer, unassigned) [Compound 6, (R*)-(6,7-difluoro-2,2-dimethylchroman-4-yl)methanesulfonamide]",A (71-100% (A))
6,"NS(=O)(=O)CC1CCOc2c1ccc(F)c2F (single isomer, unassigned) [Compound 15, (S*)-(7,8-difluorochroman-4-yl)methanesulfonamide]",C (25-55% (C))
7,"NS(=O)(=O)CC1CCOc2c1ccc(F)c2F (single isomer, unassigned) [Compound 16, (R*)-(7,8-difluorochroman-4-yl)methanesulfonamide]",B (56-70% (B))
8,"NS(=O)(=O)C1(C2CCOc3cc(F)ccc32)CC1 (single isomer, unassigned) [Compound 28, (R*)-1-(7-fluorochroman-4-yl)cyclopropane-1-sulfonamide]",C (25-55% (C))
9,"NS(=O)(=O)CC1CCOc2cc(F)c(F)cc21 (single isomer, unassigned) [Compound 30, (R*)-(6,7-difluorochroman-4-yl)methanesulfonamide]",A (71-100% (A))
10,"NS(=O)(=O)CC1CCOc2cc(Cl)ccc21 (single isomer, unassigned) [Compound 32, (R*)-(7-chlorochroman-4-yl)methanesulfonamide]",B (56-70% (B))
11,"NS(=O)(=O)CC1CCOc2cc(C(F)(F)F)ccc21 (single isomer, unassigned) [Compound 38, (R*)-(7-(trifluoromethyl)chroman-4-yl)methanesulfonamide]",A (71-100% (A))
12,"CC1(C)COc2cc(F)ccc2C1CS(N)(=O)=O (single isomer, unassigned) [Compound 44, (R*)-(7-fluoro-3,3-dimethylchroman-4-yl)methanesulfonamide]",C (25-55% (C))
13,"CC1(C)CC(CS(N)(=O)=O)c2ccc(F)cc2O1 (single isomer, unassigned) [Compound 46, (S*)-(7-fluoro-2,2-dimethylchroman-4-yl)methanesulfonamide]",A (71-100% (A))
14,"N#Cc1ccc2c(c1)OCCC2CS(N)(=O)=O (single isomer, unassigned) [Compound 60, (R*)-(7-cyanochroman-4-yl)methanesulfonamide]",C (25-55% (C))

# Same assay, conditions: adult male CD1 mice; test article 30 mg/kg i.p.; harmaline 30 mg/kg i.p.; 10-20 Hz power over 20 min relative to 20-min baseline
row,Structure (SMILES),Tremor power relative to baseline (mean ± s.e.m.)
1,"CC1(C)COc2cc(F)ccc2C1CS(N)(=O)=O (single isomer, unassigned) [Compound 44, (R*)-(7-fluoro-3,3-dimethylchroman-4-yl)methanesulfonamide]",518 ± 109
2,"CC1(C)CC(CS(N)(=O)=O)c2ccc(F)cc2O1 (single isomer, unassigned) [Compound 45, (R*)-(7-fluoro-2,2-dimethylchroman-4-yl)methanesulfonamide]",144 ± 35
3,"CC1(C)CC(CS(N)(=O)=O)c2ccc(F)cc2O1 (single isomer, unassigned) [Compound 46, (S*)-(7-fluoro-2,2-dimethylchroman-4-yl)methanesulfonamide]",145 ± 27
